The results in this text go back to ChEMBL document CHEMBL5104091, “Pyridazine as a privileged structure: An updated review on anticancer activity of pyridazine containing bioactive molecules” (Eur J Med Chem, 2021).

The target in test [1] is T1, Vascular endothelial growth factor receptor 2 (Homo sapiens, UniProt P35968). Description: Binding affinity to VEGFR2 (unknown origin) at 10 uM using ULight-4E-BP1 peptide as substrate incubated for 1 hr in presence of ATP by fluorescence based analysis relative to control.
For a further test, the system named is MDA-MB-231. Description: Antiproliferative activity against human MDA-MB-231 cells assessed as cell growth inhibition measured after 48 hrs by WST-1 assay. It is filed as functional, cell-based. The conditions noted are these: MDA-MB-231, 48 h.
Another test deals with PC-3. Description: Cytotoxicity against human PC-3 cells assessed as cell growth inhibition by MTT assay. The class given is functional, cell-based.
For the next test, the system named is MCF-12A. Description: Antiproliferative activity against human MCF-12A cells assessed as cell growth inhibition. It is filed as functional, cell-based.
Test [2] is described as follows: Inhibition of tyrosine kinase (unknown origin). Also noted: species or system Homo sapiens.
Test [3] concerns MCF7. The test can be described thus: Antiproliferative activity against human MCF7 cells assessed as cell growth inhibition. It is filed as functional, cell-based.
The test system of test [4] is HepG2. The test can be described thus: Cytotoxicity against human HepG2 cells assessed as cell growth inhibition after 48 hrs by SRB assay. It is filed as functional, cell-based. As to conditions: HepG2, 48 h.
A short description of test [5]: In vivo inhibition of VEGFR2 in Swiss albino mouse implanted with mouse Ehrlich cells incubated for 24 hrs by immunohistochemical staining based analysis relative to control. It is filed as functional.
Test [6] concerns the target Vascular endothelial growth factor receptor 3 (Homo sapiens) (UniProt P35916). The test can be described thus: Inhibition of VEGFR3 (unknown origin) at 10 uM by ELISA relative to control. Background: In an ELISA, binding on a coated surface is turned into a signal by an enzyme label.
Test [7] deals with Poly [ADP-ribose] polymerase 1 (Homo sapiens, UniProt P09874). Description: Displacement of [125I]KX1 from PARP1 in human OVCAR-8 cells incubated for 1 hr by wizard gamma counter analysis. The class given is cell-based. Background: Loss of bound radioactivity is the signal in a displacement assay; it reports binding, not function.
For test [8], the target named is T1, Vascular endothelial growth factor receptor 2. The test can be described thus: Inhibition of VEGFR2 (unknown origin) using poly (Glu,Tyr) 4:1 as substrate measured after 5 mins in presence of ATP by ELISA method.
Test [9] addresses T2, Hepatocyte growth factor receptor (Homo sapiens, UniProt P08581). The test can be described thus: Inhibition of human recombinant c-MET in presence of ATP by HTRF assay. Background: Time-resolved FRET reads energy transfer from a long-lived donor to a nearby acceptor.
A further test has as its system SK-MEL. The test can be described thus: Cytotoxicity against human SK-MEL cells assessed as cell growth inhibition. It is filed as functional, cell-based.
Another test has as its system KB. The test can be described thus: Cytotoxicity against human KB cells assessed as cell growth inhibition. The class given is functional, cell-based.
Another test has as its system P815. Description: Cytotoxicity against mouse P815 cells assessed as cell growth inhibition measured after 48 hrs by MTT assay. As to conditions: P815, 48 h. It is filed as functional, cell-based.
Test [10] concerns MCF7. Description: Cytotoxicity against human MCF7 cells assessed as cell growth inhibition measured after 48 hrs by MTT assay. As to conditions: MCF7, 48 h. The class given is functional, cell-based.
Test [11] has as its system HCT-116. The test can be described thus: Cytotoxicity against human HCT-116 cells assessed as cell growth inhibition measured after 72 hrs by MTT assay. The class given is functional, cell-based. The conditions noted are these: HCT-116, 72 h.
The target in test [12] is T2, Hepatocyte growth factor receptor. The test can be described thus: Inhibition of MET (unknown origin) at 10 uM incubated for 60 mins by spectrophotometric analysis relative to control.
The species named for a further test is Homo sapiens. The test can be described thus: Inhibition of WNT (unknown origin) at 10 uM measured after 24 hrs by TOPFlash reporter gene assay.
The test system of test [13] is A549. The test can be described thus: Antiproliferative activity against human A549 cells assessed as cell growth inhibition measured after 48 hrs by MTT assay. It is filed as functional, cell-based. As to conditions: A549, 48 h.
A further test deals with Ca-Ski. The test can be described thus: Cytotoxicity against human Ca-Ski cells assessed as cell growth inhibition measured after 45 hrs by MTT assay. It is filed as functional, cell-based.
The next test deals with SiHa. Description: Cytotoxicity against human SiHa cells assessed as cell growth inhibition measured after 45 hrs by MTT assay. The class given is functional, cell-based.
In a further test the test system is A498. Description: Cytotoxicity against human A498 cells assessed as cell growth inhibition measured after 45 hrs by MTT assay. It is filed as functional, cell-based. The conditions noted are these: A498, 45 h.
The subject of test [14] is A549. The test can be described thus: Cytotoxicity against human A549 cells assessed as cell growth inhibition measured after 45 hrs by MTT assay. It is filed as functional, cell-based. As to conditions: A549, 45 h.
Test [15] deals with HepG2. Description: Cytotoxicity against human HepG2 cells assessed as cell growth inhibition measured after 45 hrs by MTT assay. The class given is functional, cell-based. The conditions noted are these: HepG2, 45 h.
Test [16] concerns HCT-116. Description: Cytotoxicity against human HCT-116 cells assessed as cell growth inhibition measured after 48 hrs by SRB assay. The class given is functional, cell-based. The conditions noted are these: HCT-116, 48 h.

Values after ≈ are worked out from the molar mass of the structure shown.

T1 sequence (P35968 whole entry): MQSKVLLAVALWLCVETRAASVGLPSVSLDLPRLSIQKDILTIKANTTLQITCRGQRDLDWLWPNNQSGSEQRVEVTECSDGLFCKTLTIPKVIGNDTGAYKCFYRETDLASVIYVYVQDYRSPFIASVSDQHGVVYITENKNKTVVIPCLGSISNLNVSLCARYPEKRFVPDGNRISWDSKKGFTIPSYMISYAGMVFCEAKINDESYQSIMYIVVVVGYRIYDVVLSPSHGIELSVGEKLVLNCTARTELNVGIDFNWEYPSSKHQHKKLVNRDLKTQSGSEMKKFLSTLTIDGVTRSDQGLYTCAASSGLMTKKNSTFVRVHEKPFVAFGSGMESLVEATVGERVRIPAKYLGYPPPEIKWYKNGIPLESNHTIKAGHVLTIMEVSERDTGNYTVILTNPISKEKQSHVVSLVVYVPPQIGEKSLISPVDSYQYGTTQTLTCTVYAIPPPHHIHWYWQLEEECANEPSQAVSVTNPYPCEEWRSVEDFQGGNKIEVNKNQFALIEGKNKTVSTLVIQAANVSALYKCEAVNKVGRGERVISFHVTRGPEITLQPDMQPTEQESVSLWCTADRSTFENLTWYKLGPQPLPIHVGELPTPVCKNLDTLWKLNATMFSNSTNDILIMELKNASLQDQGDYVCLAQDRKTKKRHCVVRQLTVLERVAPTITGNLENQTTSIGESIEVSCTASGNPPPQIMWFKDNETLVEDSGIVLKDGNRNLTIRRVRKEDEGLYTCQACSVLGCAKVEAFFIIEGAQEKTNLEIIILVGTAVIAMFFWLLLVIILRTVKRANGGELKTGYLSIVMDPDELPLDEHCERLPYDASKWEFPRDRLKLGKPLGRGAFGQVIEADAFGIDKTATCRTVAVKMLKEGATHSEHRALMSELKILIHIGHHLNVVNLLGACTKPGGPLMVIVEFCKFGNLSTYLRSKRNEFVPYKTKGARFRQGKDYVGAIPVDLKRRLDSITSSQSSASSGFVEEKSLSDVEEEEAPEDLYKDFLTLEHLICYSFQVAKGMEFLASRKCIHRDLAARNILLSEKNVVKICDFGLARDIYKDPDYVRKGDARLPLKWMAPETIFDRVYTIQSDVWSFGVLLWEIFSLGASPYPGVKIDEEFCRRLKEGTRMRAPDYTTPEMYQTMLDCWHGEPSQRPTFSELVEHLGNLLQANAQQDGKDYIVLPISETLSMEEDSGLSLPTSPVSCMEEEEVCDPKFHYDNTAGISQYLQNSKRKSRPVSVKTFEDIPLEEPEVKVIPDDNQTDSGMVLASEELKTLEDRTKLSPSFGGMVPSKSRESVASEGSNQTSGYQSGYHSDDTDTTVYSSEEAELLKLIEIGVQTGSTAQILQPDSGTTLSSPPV
Chain of Poly [ADP-ribose] polymerase 1 (P09874 whole entry): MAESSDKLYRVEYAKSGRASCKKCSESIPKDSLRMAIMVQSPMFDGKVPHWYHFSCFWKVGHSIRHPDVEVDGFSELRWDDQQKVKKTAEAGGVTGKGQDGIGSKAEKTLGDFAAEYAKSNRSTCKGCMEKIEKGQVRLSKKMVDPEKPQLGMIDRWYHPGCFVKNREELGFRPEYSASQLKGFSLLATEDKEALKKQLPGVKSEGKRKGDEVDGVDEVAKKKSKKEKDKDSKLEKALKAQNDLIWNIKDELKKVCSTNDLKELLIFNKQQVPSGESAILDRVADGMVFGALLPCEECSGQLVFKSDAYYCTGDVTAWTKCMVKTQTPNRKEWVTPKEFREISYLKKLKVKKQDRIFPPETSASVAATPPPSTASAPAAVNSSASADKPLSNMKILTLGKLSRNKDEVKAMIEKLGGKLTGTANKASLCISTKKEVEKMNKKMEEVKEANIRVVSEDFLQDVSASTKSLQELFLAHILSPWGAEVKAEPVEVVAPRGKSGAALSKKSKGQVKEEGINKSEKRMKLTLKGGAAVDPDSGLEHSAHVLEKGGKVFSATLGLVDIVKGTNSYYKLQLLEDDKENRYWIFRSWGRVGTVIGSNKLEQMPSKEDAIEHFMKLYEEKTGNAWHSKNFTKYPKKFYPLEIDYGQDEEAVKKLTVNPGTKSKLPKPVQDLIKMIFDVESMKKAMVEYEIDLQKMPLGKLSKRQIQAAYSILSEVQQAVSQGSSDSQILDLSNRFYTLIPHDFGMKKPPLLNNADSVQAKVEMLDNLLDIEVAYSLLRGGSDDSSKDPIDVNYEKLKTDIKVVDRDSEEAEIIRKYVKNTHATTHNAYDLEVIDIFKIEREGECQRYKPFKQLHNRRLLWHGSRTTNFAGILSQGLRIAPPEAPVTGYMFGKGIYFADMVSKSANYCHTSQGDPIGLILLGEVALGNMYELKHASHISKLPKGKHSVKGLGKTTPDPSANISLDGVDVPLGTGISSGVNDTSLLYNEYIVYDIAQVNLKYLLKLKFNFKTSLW
T2 sequence (P08581 whole entry): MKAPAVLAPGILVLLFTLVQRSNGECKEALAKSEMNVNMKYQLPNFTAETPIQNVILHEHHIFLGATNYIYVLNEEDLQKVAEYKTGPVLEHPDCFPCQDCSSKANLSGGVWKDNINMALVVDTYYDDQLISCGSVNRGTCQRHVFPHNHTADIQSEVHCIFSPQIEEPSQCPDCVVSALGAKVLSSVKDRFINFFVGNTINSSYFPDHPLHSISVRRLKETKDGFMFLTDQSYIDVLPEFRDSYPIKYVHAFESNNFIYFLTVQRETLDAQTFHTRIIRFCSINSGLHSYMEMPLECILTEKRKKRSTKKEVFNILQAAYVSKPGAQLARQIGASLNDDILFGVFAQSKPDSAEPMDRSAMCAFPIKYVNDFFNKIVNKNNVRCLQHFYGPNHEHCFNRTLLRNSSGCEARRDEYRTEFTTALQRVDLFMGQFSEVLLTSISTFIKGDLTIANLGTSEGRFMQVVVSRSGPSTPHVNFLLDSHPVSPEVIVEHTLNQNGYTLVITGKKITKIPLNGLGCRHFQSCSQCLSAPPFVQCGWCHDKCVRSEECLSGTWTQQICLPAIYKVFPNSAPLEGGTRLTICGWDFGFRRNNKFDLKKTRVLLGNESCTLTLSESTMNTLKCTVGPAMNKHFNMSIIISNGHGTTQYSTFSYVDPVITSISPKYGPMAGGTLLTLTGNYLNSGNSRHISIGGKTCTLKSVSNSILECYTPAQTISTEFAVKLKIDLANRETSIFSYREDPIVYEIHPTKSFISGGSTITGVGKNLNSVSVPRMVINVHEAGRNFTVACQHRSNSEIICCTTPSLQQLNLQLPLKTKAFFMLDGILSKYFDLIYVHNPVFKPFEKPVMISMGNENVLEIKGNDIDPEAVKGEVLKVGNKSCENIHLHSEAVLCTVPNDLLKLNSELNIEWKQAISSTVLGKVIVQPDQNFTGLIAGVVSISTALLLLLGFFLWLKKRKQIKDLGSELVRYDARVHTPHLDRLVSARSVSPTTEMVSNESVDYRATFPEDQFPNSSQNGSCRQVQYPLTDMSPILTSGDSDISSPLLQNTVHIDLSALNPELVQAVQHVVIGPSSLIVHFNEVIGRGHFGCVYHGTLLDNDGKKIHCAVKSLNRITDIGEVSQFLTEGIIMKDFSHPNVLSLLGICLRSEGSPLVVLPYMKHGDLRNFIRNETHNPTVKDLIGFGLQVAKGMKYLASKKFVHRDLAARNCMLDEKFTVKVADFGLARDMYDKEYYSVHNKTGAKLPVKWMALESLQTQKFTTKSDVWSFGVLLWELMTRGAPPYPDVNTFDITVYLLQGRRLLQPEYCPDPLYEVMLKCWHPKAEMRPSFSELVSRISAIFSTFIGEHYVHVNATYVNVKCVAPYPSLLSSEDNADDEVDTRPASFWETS
Chain of Vascular endothelial growth factor receptor 3 (Homo sapiens) (P35916 whole entry): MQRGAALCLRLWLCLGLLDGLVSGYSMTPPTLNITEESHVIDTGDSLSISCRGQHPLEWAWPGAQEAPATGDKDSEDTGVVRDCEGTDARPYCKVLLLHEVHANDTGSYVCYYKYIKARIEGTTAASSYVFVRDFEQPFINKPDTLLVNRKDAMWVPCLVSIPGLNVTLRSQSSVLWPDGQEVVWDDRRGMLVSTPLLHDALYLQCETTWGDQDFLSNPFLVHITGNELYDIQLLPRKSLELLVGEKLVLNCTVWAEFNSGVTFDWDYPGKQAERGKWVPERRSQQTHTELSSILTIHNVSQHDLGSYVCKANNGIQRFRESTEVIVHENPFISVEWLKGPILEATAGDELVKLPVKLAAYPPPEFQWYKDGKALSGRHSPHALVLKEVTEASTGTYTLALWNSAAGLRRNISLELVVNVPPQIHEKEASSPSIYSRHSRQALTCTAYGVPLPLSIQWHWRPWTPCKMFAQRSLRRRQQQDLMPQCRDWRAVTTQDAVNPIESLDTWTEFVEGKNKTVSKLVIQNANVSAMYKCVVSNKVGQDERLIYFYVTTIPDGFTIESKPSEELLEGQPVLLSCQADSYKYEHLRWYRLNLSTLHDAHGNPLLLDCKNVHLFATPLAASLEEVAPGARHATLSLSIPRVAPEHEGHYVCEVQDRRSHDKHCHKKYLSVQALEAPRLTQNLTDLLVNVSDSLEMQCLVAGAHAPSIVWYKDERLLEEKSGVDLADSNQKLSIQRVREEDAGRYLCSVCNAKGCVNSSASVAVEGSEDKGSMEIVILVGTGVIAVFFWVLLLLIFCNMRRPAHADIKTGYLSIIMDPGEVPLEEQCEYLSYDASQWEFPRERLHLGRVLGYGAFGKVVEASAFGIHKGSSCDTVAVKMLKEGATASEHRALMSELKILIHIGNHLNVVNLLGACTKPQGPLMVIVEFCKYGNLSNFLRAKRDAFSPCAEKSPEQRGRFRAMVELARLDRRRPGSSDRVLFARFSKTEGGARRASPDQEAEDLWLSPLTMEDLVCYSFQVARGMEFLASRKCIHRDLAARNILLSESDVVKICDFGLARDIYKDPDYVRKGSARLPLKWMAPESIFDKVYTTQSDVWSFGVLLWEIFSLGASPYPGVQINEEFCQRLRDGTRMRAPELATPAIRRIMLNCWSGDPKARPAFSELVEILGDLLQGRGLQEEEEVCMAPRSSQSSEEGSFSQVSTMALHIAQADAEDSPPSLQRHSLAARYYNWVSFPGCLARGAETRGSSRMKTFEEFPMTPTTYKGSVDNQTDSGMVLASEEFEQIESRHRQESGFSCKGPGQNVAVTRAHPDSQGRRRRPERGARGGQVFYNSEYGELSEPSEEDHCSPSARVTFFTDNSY

For the molecule `O=C(Nc1ccc(Cl)c(C(F)(F)F)c1)Nc1nnc2ccc(N3CCOCC3)nn12`, in test [1], the Activity stood at 3%.
For `O=C1Nc2ccc(Cl)cc2/C1=N/Nc1nnc(-c2ccccc2)c2ccccc12`, the IC50 (in general, the concentration needed to halve the response being measured) in the test with MDA-MB-231 is 12 µM.
Consider `Sc1nnc(-c2ccc(Oc3ccccc3)cc2)c2ccccc12`, for which the IC50 in the test with PC-3 turned out to be 9.22 µg/mL (≈ 27.9 µM).
Turning to `Cc1cccc(NC(=S)NNC(=O)c2nnc3ccc(C)cc3c2N)c1`, the IC50 in the test with MCF-12A worked out at 48.7 µM; in [2], 0.55 µM; in the test on MCF7 [3], 0.18 µM.
For the molecule `O=C(Cn1nc(Cc2ccccc2)c2ccccc2c1=O)NNC(=S)Nc1ccccc1`, the IC50 with HepG2 [4] worked out at 7.09 µg/mL (≈ 16 µM).
With `NNc1nnc(-c2ccc(Oc3ccccc3)cc2)c2ccccc12`, the IC50 with PC-3 turned out to be 12.2 µg/mL (≈ 37.2 µM).
With `Cc1ccc(NC(=O)c2ccc(CN3CCN(C)CC3)cc2)cc1Nc1nccc(-c2cccnc2)n1` [IMATINIB], the “inhibition (INH)” value in [5] is 30%. Also, in [6], the inhibition (commonly the share of the control response that was lost under treatment) turned out to be 89.6%.
`COC1CCN(C(=O)c2cc(Cc3n[nH]c(=O)c4ccccc34)ccc2F)CC1` [AZD2461] registered an IC50 in test [7] of 0.0028 µM.
Same read-out and setting: for `COC1CCN(C(=O)c2cc(Cc3n[nH]c(=O)c4ccccc34)ccc2F)C1` (stereo unspecified) the value was 0.0042 µM.
As to `O=C(NNc1nn2cnnc2c2ccccc12)Nc1ccccc1`, the IC50 in [8] is 0.31 µM.
Turning to `O=C1Nc2ccc(Br)cc2/C1=N/Nc1nnc(-c2ccc(Cl)cc2)c2ccccc12`, the IC50 in the test with MDA-MB-231 was determined as 12 µM.
For `S=C(NNc1nn2cnnc2c2ccccc12)Nc1ccccc1`, the IC50 in [8] is 0.91 µM.
For the molecule `Sc1nnc(Cc2ccccc2)c2ccccc12`, the IC50 with PC-3 came out at 8.6 µg/mL (≈ 34.1 µM).
Turning to `Cn1cc(-c2ccc(=O)n(CC3CN(c4ncc(OCC5CCNCC5)cn4)CCO3)n2)cn1` (stereo unspecified), the IC50 in test [9] is 0.019 µM.
In the case of `O=c1c(CNc2ccccc2)cc(-c2ccccc2CO)nn1Cc1ccccc1`, the IC50 was found to be 4.2 µM with SK-MEL and 2.3 µM with KB.
`Cc1ccc2oc(Cc3cc(=O)[nH]nc3C)cc2c1`: the values for the IC50 in the test on P815 and with MCF7 [10] were 35 µM and 14.5 µM, respectively.
As to `COc1cccc(NC(=O)Cc2ccc(-c3nn4c(C)nnc4c4ccccc34)cc2)c1`, the IC50 with HCT-116 [11] is 57.4 µg/mL (≈ 136 µM).
As for `CC1=Nc2c(nnc3ccc(C)cc23)C(=O)NN1`, the IC50 in [2] is 0.22 µM; with MCF7 [3], 0.049 µM.
The molecule `COC1CN(C(=O)c2cc(Cc3n[nH]c(=O)c4ccccc34)ccc2F)C1` yielded an IC50 in test [7] of 0.0082 µM.
As to `COc1ccc2oc(Cc3cc(=O)[nH]nc3C)cc2c1`, the concentration for half-maximal inhibition (IC50) in the test with P815 stood at 35 µM; with MCF7 [10] it was 14.5 µM.
As to `O=C1Nc2ccccc2/C1=N/Nc1nnc(-c2ccc(Cl)cc2)c2ccccc12`, the IC50 with MDA-MB-231 was determined as 12 µM.
As to `CC(=O)c1ccc(-c2ccc(=O)n(Cc3nc(-c4ncccn4)no3)n2)s1`, the inhibition in test [12] worked out at 17%; in the test filed under Homo sapiens, 19%.
Regarding `CNC(=O)c1cc(Oc2ccc(NC(=O)Nc3ccc(Cl)c(C(F)(F)F)c3)cc2)ccn1` [SORAFENIB], the IC50 in the test with A549 [13] was found to be 1.25 µM.
As to `O=C1Nc2ccc(Br)cc2/C1=N/Nc1nnc(-c2ccccc2)c2ccccc12`, the IC50 with MDA-MB-231 was 12 µM.
Take `CC(C)c1ccc(OCC(=O)NNc2ccc(Cl)nn2)c(C(C)C)c1`: the IC50 in the test with Ca-Ski amounted to 7.5 µM; with SiHa, 7.8 µM; in the test with A498, 6.8 µM; in the test on A549 [14], 6.6 µM; in the test with HepG2 [15] it was 6.9 µM.
In test [7], `COC1CCCN(C(=O)c2cc(Cc3n[nH]c(=O)c4ccccc34)ccc2F)CC1` (stereo unspecified) came in with a half-inhibitory concentration (IC50) of 0.0047 µM.
In the case of `C=CCNC(=S)Nc1cccc(Nc2ccc(Nc3ccc(S(=O)(=O)NC(=N)N)cc3)nn2)c1`, the IC50 with HCT-116 [16] is 30.3 µM. Also, the “inhibition (INH)” value in [5] turned out to be 40%. Further, in [6], the inhibition came out at 89.6%.
